These results are taken from article PMC3645732, “A Differential Redox Regulation of the Pathways Metabolizing Glyceraldehyde-3-Phosphate Tunes the Production of Reducing Power in the Cytosol of Plant Cells” (International Journal of Molecular Sciences, 2013).

Assay [1] has as its target T1, Ga3PDHase (phosphorylating NAD+-dependent glyceraldehyde-3-phosphate dehydrogenase, EC 1.2.1.12) (Triticum aestivum, UniProt A5YVV3).
T1 construct: gene GAPC; recombinant wheat gapC (NCBI EF592180), homotetramer, E. coli
Kind of assay: Kd from protection against H2O2 inactivation in presence of NAD+ (Mildvan and Leigh plot); S0.[…] by enzyme kinetics. Format: biochemical.

Assay [2] deals with T2, np-Ga3PDHase (non-phosphorylating NADP+-dependent glyceraldehyde-3-phosphate dehydrogenase, EC 1.2.1.9) (Triticum aestivum, UniProt Q8LK61).
T2 construct: gene GAPN; recombinant wheat enzyme (NCBI DQ268762), pRSETB/TagapN, E. coli
T2 sequence (Q8LK61 1-496): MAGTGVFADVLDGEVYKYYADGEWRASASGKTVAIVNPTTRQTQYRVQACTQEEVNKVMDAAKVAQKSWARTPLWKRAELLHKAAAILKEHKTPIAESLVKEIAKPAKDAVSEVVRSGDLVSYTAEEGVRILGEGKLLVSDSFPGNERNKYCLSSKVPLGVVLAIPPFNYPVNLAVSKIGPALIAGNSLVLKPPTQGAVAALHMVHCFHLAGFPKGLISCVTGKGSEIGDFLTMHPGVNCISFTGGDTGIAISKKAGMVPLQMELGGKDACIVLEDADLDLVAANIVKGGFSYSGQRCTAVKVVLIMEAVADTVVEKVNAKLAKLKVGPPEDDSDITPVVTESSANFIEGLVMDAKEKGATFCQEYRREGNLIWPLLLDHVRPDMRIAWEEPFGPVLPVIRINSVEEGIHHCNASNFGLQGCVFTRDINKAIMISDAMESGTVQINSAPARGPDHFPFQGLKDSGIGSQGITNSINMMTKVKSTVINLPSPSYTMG
Nature of the assay: Kd from protection against H2O2 inactivation of purified enzyme (Mildvan and Leigh plot). Format: biochemical.

T1 sequence (A5YVV3 1-337): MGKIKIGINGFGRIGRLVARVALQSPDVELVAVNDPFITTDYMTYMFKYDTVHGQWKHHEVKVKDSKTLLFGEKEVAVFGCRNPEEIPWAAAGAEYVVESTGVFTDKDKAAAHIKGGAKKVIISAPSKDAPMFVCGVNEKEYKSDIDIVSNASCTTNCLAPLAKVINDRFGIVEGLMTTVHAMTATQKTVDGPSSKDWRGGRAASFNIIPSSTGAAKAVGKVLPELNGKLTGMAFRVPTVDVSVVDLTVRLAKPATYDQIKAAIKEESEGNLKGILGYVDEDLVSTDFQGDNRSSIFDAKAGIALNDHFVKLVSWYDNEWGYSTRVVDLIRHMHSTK

Consider `O=C[C@H](O)COP(=O)(O)O` [glyceraldehyde-3-phosphate], for which the Kd in assay [1] was 115 µM. In turn, `NC(=O)c1ccc[n+]([C@@H]2O[C@H](COP(=O)([O-])OP(=O)(O)OC[C@H]3O[C@@H](n4cnc5c(N)ncnc54)[C@H](OP(=O)(O)O)[C@@H]3O)[C@@H](O)[C@H]2O)c1` [NADP^+] registered a Kd in assay [2] of 2.5 µM.

In general, Kd refers to the free concentration of one partner at which half of the binding sites on the other are occupied at equilibrium, for simple one-to-one binding.
